Source: US10364245B2 (CHIESI FARMACEUTICI S.p.A., priority 2017, dated 2019)

How the values were obtained:
[1] = target: T1, p38 alpha (Homo sapiens, UniProt Q16539); assay: P38 alpha enzyme inhibition assay (Alphascreen kinase activity assay); type: biochemical; conditions: 100 pM p38 alpha, 2 hours preincubation at 25° C., 250 μM ATP, ATF-2 fusion protein; read-out: p38α inhibition
T1 construct: purchased Invitrogen PV3304
How it was run: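 Phosphorylation of ATF-2 fusion protein (0.3 μg/ml) read by AlphaScreen with anti-phospho-ATF2 antibody after 1 h kinase reaction at 25 °C, initiated by 250 μM ATP. Compounds first incubated 2 h at 25 °C with 100 pM p38 alpha in pH 7.5 HEPES buffer, 1% DMSO. IC50 derived from concentration-response data.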

[2] = tested on: Peripheral Blood Mononuclear Cells (PBMCs), TNFα release; assay: LPS-stimulated PBMC TNFα release assay; type: cell-based; conditions: human PBMC, LPS (10 ng/ml), 18 h, compound 1 h before LPS; read-out: LPS-stimulated PBMC TNFα release inhibition
Experimental: LPS-Stimulated PBMC TNFα Release Assay
Peripheral Blood Mononuclear Cells (PBMCs) were isolated from healthy human volunteer blood using a standard density gradient centrifugation technique. Citrated blood was placed onto Histopaque™ and centrifuged. The PBMCs were removed from the density gradient interface and washed in phosphate buffered saline (PBS). The PBMCs were suspended in RPMI 1640 medium (without serum), dispensed into a 96-well plate and incubated at 37° C. for 3 h in a humidified incubator. After incubation, the medium was replaced (with medium containing 1% foetal bovine serum) and the plate incubated at 37° C., for 1 h, in the presence of test compound or the appropriate vehicle. LPS (10 ng/ml), or an appropriate vehicle control, was then added to the cells and the plate returned to the incubator for 18 h. Cell-free supernatants were removed and assayed for TNFα levels using MSD plates on the Sector Imager 6000 (MesoScale).
A dose response curve to each test compound was performed and the effect of compound in each experiment was expressed as a percentage inhibition of the control TNFα release. Dose response curves were plotted and compound potency (IC50) was determined. Compounds were tested in at least three separate experiments.

T1 sequence (Q16539 whole entry, the tested form may be a part): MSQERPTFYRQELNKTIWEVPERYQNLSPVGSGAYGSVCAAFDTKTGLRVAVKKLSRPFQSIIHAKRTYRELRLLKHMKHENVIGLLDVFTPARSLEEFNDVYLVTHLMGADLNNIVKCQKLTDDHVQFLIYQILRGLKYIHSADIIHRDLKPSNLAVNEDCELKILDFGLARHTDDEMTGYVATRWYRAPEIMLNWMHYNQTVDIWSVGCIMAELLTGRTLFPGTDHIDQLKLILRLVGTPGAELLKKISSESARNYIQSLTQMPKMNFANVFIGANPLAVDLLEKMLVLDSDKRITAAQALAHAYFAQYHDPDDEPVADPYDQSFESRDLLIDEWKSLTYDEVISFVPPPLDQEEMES

SMILES	IC50 [1]	IC50 [2]
COC(C)(C)c1nnc2ccc(O[C@@H]3CC[C@H](NC(=O)Nc4cc(C(C)(C)C)nc(C(=O)NCCN5CCCOCC5)n4)c4ccccc43)cn12 [Example 12, N-(2-(1,4-Oxazepan-4-yl)ethyl)-4-(tert-butyl)-6-(3-((1S,4R)-4-((3-(2-methoxypropan-2-yl)-[1,2,4]triazolo[4,3-a]pyridin-6-yl)oxy)-1,2,3,4-tetrahydronaphthalen-1-yl)ureido)pyrimidine-2-carboxamide]	1 to 10 nM	1 to 5 nM
CC(C)(C)c1cc(NC(=O)N[C@H]2CC[C@@H](Oc3ccc4nnc(C(C)(C)C)n4c3)c3ccccc32)nc(C(=O)NCCO)n1 [Example 16, 4-(tert-Butyl)-6-(3-((1S,4R)-4-((3-(tert-butyl)-[1,2,4]triazolo[4,3-a]pyridin-6-yl)oxy)-1,2,3,4-tetrahydronaphthalen-1-yl)ureido)-N-(2-hydroxyethyl)pyrimidine-2-carboxamide]	< 1 nM	< 1 nM
C[C@@H]1CCC[C@H](C)N1c1nnc2ccc(O[C@@H]3CC[C@H](NC(=O)Nc4cc(C(C)(C)C)nc(C(=O)NCCN5CCOCC5)n4)c4ccccc43)cn12 [Example 18, 4-(tert-Butyl)-6-(3-((1S,4R)-4-((3-((2R,6S)-2,6-dimethylpiperidin-1-yl)-[1,2,4]triazolo[4,3-a]pyridin-6-yl)oxy)-1,2,3,4-tetrahydronaphthalen-1-yl)ureido)-N-(2-morpholinoethyl)pyrimidine-2-carboxamide]	< 1 nM	1 to 5 nM
C[C@@H]1CCC[C@H](C)N1c1nnc2ccc(O[C@@H]3CC[C@H](NC(=O)Nc4cc(C(C)(C)C)nc(C(=O)NCCO)n4)c4ccccc43)cn12 [Example 19, 4-(tert-Butyl)-6-(3-((1S,4R)-4-((3-((2R,6S)-2,6-dimethylpiperidin-1-yl)-[1,2,4]triazolo[4,3-a]pyridin-6-yl)oxy)-1,2,3,4-tetrahydronaphthalen-1-yl)ureido)-N-(2-hydroxyethyl)pyrimidine-2-carboxamide]	< 1 nM	< 1 nM
C[C@@H]1CCC[C@H](C)N1c1nnc2ccc(O[C@@H]3CC[C@H](NC(=O)Nc4cc(C(C)(C)C)nc(C(=O)NCCN(C)C)n4)c4ccccc43)cn12 [Example 20, 4-(tert-Butyl)-N-(2-(dimethylamino)ethyl)-6-(3-((1S,4R)-4-((3-((2R,6S)-2,6-dimethylpiperidin-1-yl)-[1,2,4]triazolo[4,3-a]pyridin-6-yl)oxy)-1,2,3,4-tetrahydronaphthalen-1-yl)ureido)pyrimidine-2-carboxamide]	< 1 nM	1 to 5 nM
CC(C)(C)c1cc(NC(=O)N[C@H]2CC[C@@H](Oc3ccc4nnc(C(C)(C)C)n4c3)c3ccccc32)nc(CN2CCOCC2)n1 [Example 21, 1-(6-(tert-Butyl)-2-(morpholinomethyl)pyrimidin-4-yl)-3-((1S,4R)-4-((3-(tert-butyl)-[1,2,4]triazolo[4,3-a]pyridin-6-yl)oxy)-1,2,3,4-tetrahydronaphthalen-1-yl)urea]	1 to 10 nM	> 5 nM
CN1CCN(C(C)(C)c2nnc3ccc(O[C@@H]4CC[C@H](NC(=O)Nc5cc(C(C)(C)C)nc(CO)n5)c5ccccc54)cn23)CC1 [Example 23, 1-(6-(tert-Butyl)-2-(hydroxymethyl)pyrimidin-4-yl)-3-((1S,4R)-4-((3-(2-(4-methylpiperazin-1-yl)propan-2-yl)-[1,2,4]triazolo[4,3-a]pyridin-6-yl)oxy)-1,2,3,4-tetrahydronaphthalen-1-yl)urea]	1 to 10 nM	> 5 nM

Continued, in another order:

IC50 [1]	SMILES	IC50 [2]
< 1 nM	COCC(C)(C)c1nnc2ccc(O[C@@H]3CC[C@H](NC(=O)Nc4cc(C(C)(C)C)nc(C(=O)NCC(C)(C)N(C)C)n4)c4ccccc43)cn12 [Example 7, 4-(tert-Butyl)-N-(2-(dimethylamino)-2-methylpropyl)-6-(3-((1S,4R)-4-((3-(1-methoxy-2-methylpropan-2-yl)-[1,2,4]triazolo[4,3-a]pyridin-6-yl)oxy)-1,2,3,4-tetrahydronaphthalen-1-yl)ureido)pyrimidine-2-carboxamide]	1 to 5 nM
< 1 nM	CC[C@H](C)c1nnc2ccc(O[C@@H]3CC[C@H](NC(=O)Nc4cc(C(C)(C)C)nc(C(=O)NCC(C)(C)N(C)C)n4)c4ccccc43)cn12 [Example 8, 4-(tert-Butyl)-6-(3-((1S,4R)-4-((3-((S)-sec-butyl)-[1,2,4]triazolo[4,3-a]pyridin-6-yl)oxy)-1,2,3,4-tetrahydronaphthalen-1-yl)ureido)-N-(2-(dimethylamino)-2-methylpropyl)pyrimidine-2-carboxamide]	1 to 5 nM
< 1 nM	CC(C)(C)c1cc(NC(=O)N[C@H]2CC[C@@H](Oc3ccc4nnc(C(C)(C)C)n4c3)c3ccccc32)cc(C(=O)NCCN2CCC(O)CC2)n1 [Example 9, 6-(tert-Butyl)-4-(3-((1S,4R)-4-((3-(tert-butyl)-[1,2,4]triazolo[4,3-a]pyridin-6-yl)oxy]-1,2,3,4-tetrahydronaphthalen-1-yl}ureido)-N-(2-(4-hydroxypiperidin-1-yl)ethyl)picolinamide]	1 to 5 nM
< 1 nM	CCN(CC)c1nnc2ccc(O[C@@H]3CC[C@H](NC(=O)Nc4cc(C(=O)NCCN(C)C)nc(C(C)(C)C)c4)c4ccccc43)cn12 [Example 10, 6-(tert-Butyl)-4-(3-((1S,4R)-4-((3-(diethylamino)-[1,2,4]triazolo[4,3-a]pyridin-6-yl)oxy)-1,2,3,4-tetrahydronaphthalen-1-yl)ureido)-N-(2-(dimethylamino)ethyl)picolinamide]	1 to 5 nM
< 1 nM	CCN(C)CCNC(=O)c1nc(NC(=O)N[C@H]2CC[C@@H](Oc3ccc4nnc(N(CC)CC)n4c3)c3ccccc32)cc(C(C)(C)C)n1 [Example 11, 4-(tert-Butyl)-6-(3-((1S,4R)-4-((3-(diethylamino)-[1,2,4]triazolo[4,3-a]pyridin-6-yl)oxy)-1,2,3,4-tetrahydronaphthalen-1-yl)ureido)-N-(2-(ethyl(methyl)amino)ethyl)pyrimidine-2-carboxamide]	1 to 5 nM
< 1 nM	COC(C)(C)c1nnc2ccc(O[C@@H]3CC[C@H](NC(=O)Nc4cc(C(C)(C)C)nc(CO)n4)c4ccccc43)cn12 [Example 13, 1-(6-(tert-Butyl)-2-(hydroxymethyl)pyrimidin-4-yl)-3-((1S,4R)-4-((3-(2-methoxypropan-2-yl)-[1,2,4]triazolo[4,3-a]pyridine-6-yl)oxy)-1,2,3,4-tetrahydronaphthalene-1-yl)urea]	1 to 5 nM
< 1 nM	CN1CCC[C@@]1(C)c1nnc2ccc(O[C@@H]3CC[C@H](NC(=O)Nc4cc(C(C)(C)C)ncn4)c4ccccc43)cn12 [Example 14, 1-(6-(tert-Butyl)pyrimidin-4-yl)-3-((1S,4R)-4-((3-((S)-1,2-dimethylpyrrolidin-2-yl)-[1,2,4]triazolo[4,3-a]pyridin-6-yl)oxy)-1,2,3,4-tetrahydronaphthalen-1-yl)urea]	< 1 nM
< 1 nM	C[C@H]1CCCCN1c1nnc2ccc(O[C@@H]3CC[C@H](NC(=O)Nc4cc(C(C)(C)C)nc(CN(C)C)n4)c4ccccc43)cn12 [Example 15, 1-(6-(tert-Butyl)-2-((dimethylamino)methyl)pyrimidin-4-yl)-3-((1S,4R)-4-((3-((S)-2-methylpiperidin-1-yl)-[1,2,4]triazolo[4,3-a]pyridin-6-yl)oxy)-1,2,3,4-tetrahydronaphthalen-1-yl)urea]	> 5 nM
